Test results reported in ChEMBL document CHEMBL1201862, “PubChem BioAssay data set” (2004).
Active and inactive are the calls of the source.

Columns and labels:
[1] = biological target: Glyceraldehyde-3-phosphate dehydrogenase (Homo sapiens, UniProt P04406)
[2] = biological target: T1, Alkaline phosphatase, tissue-nonspecific isozyme (Homo sapiens, UniProt P05186); experiment: potency against alkaline phosphatase TNAP – biochemical, luminescent, dose response, SAR follow-up (AID 1056)
T1 sequence (P05186 whole entry): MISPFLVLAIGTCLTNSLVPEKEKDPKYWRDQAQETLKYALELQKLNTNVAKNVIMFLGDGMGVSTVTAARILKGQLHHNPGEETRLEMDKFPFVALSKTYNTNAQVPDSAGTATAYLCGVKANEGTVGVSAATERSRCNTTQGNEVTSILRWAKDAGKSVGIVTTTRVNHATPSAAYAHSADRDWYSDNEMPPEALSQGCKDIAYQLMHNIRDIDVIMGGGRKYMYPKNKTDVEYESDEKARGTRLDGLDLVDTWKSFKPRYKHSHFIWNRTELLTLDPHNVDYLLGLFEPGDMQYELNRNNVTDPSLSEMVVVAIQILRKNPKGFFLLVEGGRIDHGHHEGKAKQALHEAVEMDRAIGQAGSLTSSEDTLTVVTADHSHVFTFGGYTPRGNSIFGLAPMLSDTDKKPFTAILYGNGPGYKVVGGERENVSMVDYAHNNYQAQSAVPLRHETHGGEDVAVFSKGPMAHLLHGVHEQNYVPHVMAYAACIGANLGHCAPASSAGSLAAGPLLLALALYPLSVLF

Bcl-2-related protein A1 = biological target: T2, Bcl-2-related protein A1 (Mus musculus, UniProt Q07440); type: functional;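 note: confirmatory dose–response counterscreen on Bfl-1, used to check hits from a UBC13 polyubiquitin inhibitor campaign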
T2 sequence (Q07440 whole entry): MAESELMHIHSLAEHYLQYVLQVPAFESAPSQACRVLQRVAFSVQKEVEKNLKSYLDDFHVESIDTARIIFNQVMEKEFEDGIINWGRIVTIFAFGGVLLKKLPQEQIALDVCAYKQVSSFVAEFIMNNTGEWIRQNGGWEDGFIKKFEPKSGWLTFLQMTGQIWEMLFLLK

[3] = biological target: T3, Ubiquitin-conjugating enzyme E2 N (Homo sapiens, UniProt P61088); type: functional
T3 sequence (P61088 whole entry): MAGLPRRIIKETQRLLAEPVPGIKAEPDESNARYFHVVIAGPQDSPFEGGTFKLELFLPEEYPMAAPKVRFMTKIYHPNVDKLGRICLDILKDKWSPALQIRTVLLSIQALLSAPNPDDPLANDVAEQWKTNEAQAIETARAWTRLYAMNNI

[4] = biological target: T3, Ubiquitin-conjugating enzyme E2 N; type: functional; remark: listed apart in the source
Nonstructural protein 1 = Nonstructural protein 1 (Influenza A virus, UniProt Q194T2); type: functional, Influenza A virus (A/California/07/2009(H1N1))
[5] = biological target: T4, Sentrin-specific protease 8 (Homo sapiens, UniProt Q96LD8); type: functional
T4 sequence (Q96LD8 whole entry): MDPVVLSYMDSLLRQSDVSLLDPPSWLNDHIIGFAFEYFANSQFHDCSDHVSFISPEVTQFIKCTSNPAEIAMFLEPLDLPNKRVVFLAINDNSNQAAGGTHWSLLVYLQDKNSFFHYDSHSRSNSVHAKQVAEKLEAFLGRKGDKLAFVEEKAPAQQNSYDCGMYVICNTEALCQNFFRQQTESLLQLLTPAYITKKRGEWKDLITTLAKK

[6] = biological target: T4, Sentrin-specific protease 8; type: functional; remark: listed apart in the source
[7] = biological target: T5, DNA repair protein RAD52 homolog (Homo sapiens, UniProt P43351); type: functional, biochemical
T5 sequence (P43351 whole entry): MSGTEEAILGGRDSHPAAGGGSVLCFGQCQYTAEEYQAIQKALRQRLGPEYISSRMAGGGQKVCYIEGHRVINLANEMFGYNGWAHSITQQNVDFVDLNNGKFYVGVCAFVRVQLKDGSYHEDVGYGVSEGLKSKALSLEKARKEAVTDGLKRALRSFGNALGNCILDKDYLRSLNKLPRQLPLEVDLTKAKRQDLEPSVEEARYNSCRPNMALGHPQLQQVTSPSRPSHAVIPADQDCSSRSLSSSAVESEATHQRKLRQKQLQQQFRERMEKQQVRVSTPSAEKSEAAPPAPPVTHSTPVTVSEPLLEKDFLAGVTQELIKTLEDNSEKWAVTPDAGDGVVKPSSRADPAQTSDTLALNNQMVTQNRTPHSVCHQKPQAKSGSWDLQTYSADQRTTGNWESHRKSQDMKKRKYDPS

[8] = biological target: Peroxisome proliferator-activated receptor gamma/Nuclear receptor coactivator 1 (Homo sapiens, UniProt P37231); experiment: (§1) TR-FRET dose response biochemical High Throughput Screening assay for agonists of the steroid receptor coactivator 1 (SRC-1) recruitment by the peroxisome proliferator-activated receptor gamma (PPAR gamma): non-selective agonists. [Related pubchem assays (depositor defined):AID1300, AID1808, AID504735, AID631]; type: protein assay
[9] = biological target: Peroxisome proliferator-activated receptor gamma/Nuclear receptor coactivator 3 (Homo sapiens, UniProt P37231); experiment: as §1, with “3 (SRC-3)” for “1 (SRC-1)”, “assays: 1301 (Confirmation screen.), 1048 (Primary screen.)]” for “assays (depositor defined):AID1300, AID1808, AID504735, AID631]”; type: functional
[10] = biological target: Peroxisome proliferator-activated receptor gamma/Nuclear receptor coactivator 2 (Homo sapiens, UniProt P37231); experiment: TR-FRET dose response biochemical High Throughput Screening assay for agonists of the steroid receptor coactivator 2 (SRC-2) recruitment by the peroxisome proliferator-activated receptor gamma (PPAR gamma): non-selective agonists. [Related pubchem assays: 1297, 1032 ]; type: functional
Coagulation factor XII = biological target: T6, Coagulation factor XII (Homo sapiens, UniProt P00748); type: functional;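 note: activated factor XIIa alpha cleaving a fluorogenic AMC peptide substrate; inhibitor potency from loss of enzyme activity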
T6 sequence (P00748 whole entry): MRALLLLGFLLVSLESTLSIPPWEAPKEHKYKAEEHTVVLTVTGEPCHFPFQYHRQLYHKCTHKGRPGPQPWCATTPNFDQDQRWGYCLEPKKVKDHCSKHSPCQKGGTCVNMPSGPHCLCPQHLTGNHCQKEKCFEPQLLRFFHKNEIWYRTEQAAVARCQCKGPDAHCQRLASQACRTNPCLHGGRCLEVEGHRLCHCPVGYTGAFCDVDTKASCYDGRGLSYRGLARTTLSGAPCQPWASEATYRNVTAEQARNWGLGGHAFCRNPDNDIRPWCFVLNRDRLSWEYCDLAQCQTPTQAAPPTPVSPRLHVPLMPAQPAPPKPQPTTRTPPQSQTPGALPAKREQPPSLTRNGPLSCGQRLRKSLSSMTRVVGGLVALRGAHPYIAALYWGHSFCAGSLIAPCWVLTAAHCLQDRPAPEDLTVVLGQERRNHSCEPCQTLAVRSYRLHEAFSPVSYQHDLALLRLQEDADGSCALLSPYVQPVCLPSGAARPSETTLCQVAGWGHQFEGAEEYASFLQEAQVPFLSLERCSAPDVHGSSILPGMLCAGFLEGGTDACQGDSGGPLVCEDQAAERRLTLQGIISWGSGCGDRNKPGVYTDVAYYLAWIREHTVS

[11] = HEK-293T cell viability reduction – luminescence, B-cell screen hits, cytotoxicity control for BCR NF-kB inhibitor project, dose response (AID 489021); type: functional, cell-based;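 note: HEK-293T cells carrying an NF-kB luciferase reporter; cells exposed to compound for about 14 hours before viability readout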
Protein Rev = biological target: T7, Protein Rev (Human immunodeficiency virus type 1 group M subtype B (isolate HXB2)(HIV-1), UniProt P04618); experiment: blockers of HIV Rev/RRE RNA complex – biochemical, fluorescence polarization, HIV-1, dose response (AID 434976); parameters: species or system Human immunodeficiency virus 1
T7 sequence (P04618 whole entry): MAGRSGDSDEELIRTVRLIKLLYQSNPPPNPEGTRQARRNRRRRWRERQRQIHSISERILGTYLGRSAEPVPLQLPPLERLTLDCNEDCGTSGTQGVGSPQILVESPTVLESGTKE

[12] = biological target: T8, Female germline-specific tumor suppressor gld-1 (Caenorhabditis elegans, UniProt Q17339); experiment: blockers of GLD-1/TGE RNA complex formation – biochemical, fluorescence polarization, C. elegans, dose response (AID 2802);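 note: fluorescence polarization of labeled TGE RNA bound by purified gld-1 protein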
T8 sequence (Q17339 whole entry): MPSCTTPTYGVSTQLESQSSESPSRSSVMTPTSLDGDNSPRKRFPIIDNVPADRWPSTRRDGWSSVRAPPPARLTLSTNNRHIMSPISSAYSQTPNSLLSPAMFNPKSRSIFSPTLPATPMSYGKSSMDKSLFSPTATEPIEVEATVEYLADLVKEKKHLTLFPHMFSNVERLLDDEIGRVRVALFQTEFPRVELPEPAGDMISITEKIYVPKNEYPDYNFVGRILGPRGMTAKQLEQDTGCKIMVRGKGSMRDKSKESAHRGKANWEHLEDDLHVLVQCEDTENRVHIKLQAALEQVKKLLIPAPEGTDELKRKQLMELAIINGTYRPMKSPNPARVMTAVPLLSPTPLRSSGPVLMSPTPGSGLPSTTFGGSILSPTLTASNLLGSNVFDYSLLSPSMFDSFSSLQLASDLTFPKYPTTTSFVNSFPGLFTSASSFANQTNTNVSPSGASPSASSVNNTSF

Genome polyprotein = Genome polyprotein (dengue virus type 2, UniProt P29990); experiment: flavivirus cap methylation enzyme inhibition – biochemical, confirmation dose response, primary screen (AID 588689); type: functional
Beta-galactosidase = Beta-galactosidase (Escherichia coli, UniProt Q8VNN2); experiment: PubChem AID 485352; type: functional
[13] = biological target: T9, Type-1 angiotensin II receptor (Homo sapiens, UniProt P30556); experiment: antagonism of angiotensin II type 1 receptor – cell-based, uHTS hits, selectivity assay for APJ receptor antagonist project, dose response (AID 463214); type: functional;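 note: antagonist potency against angiotensin II stimulated AT1 response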
T9 sequence (P30556 whole entry): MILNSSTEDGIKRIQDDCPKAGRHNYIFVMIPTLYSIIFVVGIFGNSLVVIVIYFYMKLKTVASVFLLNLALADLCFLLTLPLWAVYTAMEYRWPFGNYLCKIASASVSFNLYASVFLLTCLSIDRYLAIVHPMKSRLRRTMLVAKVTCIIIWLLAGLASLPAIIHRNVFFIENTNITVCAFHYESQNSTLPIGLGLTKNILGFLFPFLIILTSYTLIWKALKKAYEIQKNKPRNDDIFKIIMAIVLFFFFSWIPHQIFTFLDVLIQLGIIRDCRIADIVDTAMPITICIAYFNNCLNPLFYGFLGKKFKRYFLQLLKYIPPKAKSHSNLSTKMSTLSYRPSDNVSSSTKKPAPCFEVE

[14] = biological target: Heat shock protein HSP 90-alpha (Homo sapiens, UniProt P07900); type: functional, organism-based
[15] = biological target: T10, Oxysterols receptor LXR-beta (Homo sapiens, UniProt P55055); type: functional, cell-based;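 note: agonist activity at LXR measured by a cell-based luminescence readout across a dose range, run as a counterscreen for daf-12 agonists; HEK293 cells with Gal4-LXR fusion and GAL4-driven luciferase reporter; potency for activation of Gal4-LXR reporter so compounds are agonists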
T10 sequence (P55055 whole entry): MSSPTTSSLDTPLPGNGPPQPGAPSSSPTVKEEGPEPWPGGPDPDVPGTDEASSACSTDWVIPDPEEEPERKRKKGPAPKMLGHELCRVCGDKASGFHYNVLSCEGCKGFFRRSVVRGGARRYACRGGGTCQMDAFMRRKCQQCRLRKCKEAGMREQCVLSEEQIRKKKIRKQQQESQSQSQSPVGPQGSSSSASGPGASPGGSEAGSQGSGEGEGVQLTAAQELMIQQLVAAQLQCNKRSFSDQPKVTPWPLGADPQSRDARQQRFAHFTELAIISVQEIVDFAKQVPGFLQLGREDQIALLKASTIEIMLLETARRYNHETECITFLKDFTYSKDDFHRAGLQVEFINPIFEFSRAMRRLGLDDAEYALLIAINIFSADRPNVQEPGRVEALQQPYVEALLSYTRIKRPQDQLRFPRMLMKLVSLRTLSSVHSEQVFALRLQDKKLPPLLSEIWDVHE

HEK293 [16] = experiment: cells; conditions: Homo sapiens
HEK293 [17] = experiment: cells; conditions: Homo sapiens; remark: listed apart in the source

Chain of Glyceraldehyde-3-phosphate dehydrogenase (P04406 whole entry): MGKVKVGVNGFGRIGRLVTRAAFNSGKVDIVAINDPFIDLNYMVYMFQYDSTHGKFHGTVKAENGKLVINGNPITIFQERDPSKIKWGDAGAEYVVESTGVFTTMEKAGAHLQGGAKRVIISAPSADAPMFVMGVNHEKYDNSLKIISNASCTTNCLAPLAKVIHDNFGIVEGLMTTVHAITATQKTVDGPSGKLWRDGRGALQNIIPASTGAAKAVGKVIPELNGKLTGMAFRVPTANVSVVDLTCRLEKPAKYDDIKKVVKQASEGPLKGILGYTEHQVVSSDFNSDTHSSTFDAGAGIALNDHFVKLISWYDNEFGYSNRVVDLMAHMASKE
Chain of Peroxisome proliferator-activated receptor gamma/Nuclear receptor coactivator 1 (P37231 whole entry): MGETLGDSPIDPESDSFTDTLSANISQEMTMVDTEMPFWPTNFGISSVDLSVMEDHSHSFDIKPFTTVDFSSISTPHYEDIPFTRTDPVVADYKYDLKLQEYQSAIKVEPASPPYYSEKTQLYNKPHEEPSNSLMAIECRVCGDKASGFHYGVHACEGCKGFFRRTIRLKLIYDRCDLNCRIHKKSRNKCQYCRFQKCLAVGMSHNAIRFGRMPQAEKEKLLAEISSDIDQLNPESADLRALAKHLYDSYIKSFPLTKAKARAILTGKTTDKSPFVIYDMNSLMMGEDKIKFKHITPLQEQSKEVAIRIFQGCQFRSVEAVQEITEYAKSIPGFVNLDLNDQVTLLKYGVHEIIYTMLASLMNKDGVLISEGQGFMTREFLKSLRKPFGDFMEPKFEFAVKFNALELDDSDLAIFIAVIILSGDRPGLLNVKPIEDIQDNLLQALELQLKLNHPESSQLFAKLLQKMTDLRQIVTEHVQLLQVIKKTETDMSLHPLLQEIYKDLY
Chain of Peroxisome proliferator-activated receptor gamma/Nuclear receptor coactivator 1 (Q15788 whole entry, further chain): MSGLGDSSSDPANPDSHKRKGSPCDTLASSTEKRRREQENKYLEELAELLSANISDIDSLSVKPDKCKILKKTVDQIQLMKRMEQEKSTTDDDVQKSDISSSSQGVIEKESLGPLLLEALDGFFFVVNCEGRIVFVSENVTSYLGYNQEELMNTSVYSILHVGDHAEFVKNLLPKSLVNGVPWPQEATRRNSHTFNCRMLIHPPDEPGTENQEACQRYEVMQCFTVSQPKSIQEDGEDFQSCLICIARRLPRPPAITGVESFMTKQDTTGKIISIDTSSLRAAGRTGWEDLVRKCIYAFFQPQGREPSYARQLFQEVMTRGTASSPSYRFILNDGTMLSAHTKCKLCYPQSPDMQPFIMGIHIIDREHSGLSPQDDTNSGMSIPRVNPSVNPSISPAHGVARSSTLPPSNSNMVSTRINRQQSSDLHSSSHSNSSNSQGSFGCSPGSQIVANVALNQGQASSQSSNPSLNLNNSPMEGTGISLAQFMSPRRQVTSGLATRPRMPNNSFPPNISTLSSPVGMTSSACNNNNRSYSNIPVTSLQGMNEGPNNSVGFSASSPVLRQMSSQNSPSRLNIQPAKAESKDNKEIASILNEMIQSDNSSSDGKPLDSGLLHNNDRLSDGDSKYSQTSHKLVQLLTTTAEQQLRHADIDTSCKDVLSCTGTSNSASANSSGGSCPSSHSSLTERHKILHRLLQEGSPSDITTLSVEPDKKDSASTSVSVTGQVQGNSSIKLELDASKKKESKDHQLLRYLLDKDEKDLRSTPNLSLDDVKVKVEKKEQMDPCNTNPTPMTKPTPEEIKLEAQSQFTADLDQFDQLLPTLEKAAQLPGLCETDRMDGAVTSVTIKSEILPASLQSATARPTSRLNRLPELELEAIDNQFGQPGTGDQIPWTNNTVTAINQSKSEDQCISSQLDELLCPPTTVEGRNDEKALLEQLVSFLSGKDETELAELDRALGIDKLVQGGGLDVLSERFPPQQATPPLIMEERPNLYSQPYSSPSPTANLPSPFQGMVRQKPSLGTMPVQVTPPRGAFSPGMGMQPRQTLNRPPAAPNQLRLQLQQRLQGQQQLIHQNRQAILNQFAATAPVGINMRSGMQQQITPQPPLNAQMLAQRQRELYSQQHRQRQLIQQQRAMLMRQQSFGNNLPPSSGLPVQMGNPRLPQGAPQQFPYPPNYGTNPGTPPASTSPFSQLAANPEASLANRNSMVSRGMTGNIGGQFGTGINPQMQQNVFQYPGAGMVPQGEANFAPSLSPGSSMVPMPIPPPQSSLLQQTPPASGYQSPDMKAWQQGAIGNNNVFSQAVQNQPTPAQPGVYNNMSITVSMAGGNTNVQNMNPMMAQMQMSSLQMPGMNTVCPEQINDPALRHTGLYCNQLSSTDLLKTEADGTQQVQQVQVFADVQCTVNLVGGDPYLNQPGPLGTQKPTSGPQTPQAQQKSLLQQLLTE
Chain of Peroxisome proliferator-activated receptor gamma/Nuclear receptor coactivator 3 (P37231 whole entry): as the sequence (P37231 whole entry) above
Chain of Peroxisome proliferator-activated receptor gamma/Nuclear receptor coactivator 3 (Q9Y6Q9 whole entry, further chain): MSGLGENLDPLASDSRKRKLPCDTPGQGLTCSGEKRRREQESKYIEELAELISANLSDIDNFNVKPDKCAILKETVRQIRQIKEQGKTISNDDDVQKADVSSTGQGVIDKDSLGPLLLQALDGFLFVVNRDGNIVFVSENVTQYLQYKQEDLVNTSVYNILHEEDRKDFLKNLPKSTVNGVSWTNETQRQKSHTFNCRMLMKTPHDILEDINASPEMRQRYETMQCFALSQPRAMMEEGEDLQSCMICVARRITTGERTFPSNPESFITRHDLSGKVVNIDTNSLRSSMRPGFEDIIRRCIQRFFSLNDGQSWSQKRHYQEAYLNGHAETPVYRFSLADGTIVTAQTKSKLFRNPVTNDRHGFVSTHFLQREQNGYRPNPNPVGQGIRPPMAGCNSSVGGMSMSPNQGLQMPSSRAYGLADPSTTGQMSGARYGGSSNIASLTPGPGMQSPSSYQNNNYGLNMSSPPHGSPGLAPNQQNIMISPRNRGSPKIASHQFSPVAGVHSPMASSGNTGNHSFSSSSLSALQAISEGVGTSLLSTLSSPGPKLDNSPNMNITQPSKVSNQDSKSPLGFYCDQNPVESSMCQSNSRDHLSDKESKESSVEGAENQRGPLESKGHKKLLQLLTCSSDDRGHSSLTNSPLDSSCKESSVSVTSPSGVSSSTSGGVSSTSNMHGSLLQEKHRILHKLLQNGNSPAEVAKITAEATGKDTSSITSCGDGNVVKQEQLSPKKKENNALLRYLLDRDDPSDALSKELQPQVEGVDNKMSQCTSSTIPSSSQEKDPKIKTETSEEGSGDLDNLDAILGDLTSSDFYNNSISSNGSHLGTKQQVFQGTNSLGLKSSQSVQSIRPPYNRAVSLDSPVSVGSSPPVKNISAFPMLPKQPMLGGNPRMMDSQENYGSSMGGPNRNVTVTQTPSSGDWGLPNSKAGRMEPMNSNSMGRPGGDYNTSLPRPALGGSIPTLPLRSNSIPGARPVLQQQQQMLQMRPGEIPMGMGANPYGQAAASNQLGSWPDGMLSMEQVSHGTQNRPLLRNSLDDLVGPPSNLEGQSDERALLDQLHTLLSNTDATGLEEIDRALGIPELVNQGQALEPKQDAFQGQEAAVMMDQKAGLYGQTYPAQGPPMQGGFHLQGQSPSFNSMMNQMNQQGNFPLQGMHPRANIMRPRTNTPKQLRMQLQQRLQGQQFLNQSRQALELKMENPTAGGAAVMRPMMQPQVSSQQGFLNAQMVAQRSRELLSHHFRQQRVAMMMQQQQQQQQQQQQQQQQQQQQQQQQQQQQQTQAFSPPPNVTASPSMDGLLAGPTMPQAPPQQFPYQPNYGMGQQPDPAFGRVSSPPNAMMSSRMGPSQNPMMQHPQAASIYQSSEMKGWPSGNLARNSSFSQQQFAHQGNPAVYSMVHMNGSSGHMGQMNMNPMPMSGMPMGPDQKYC
Chain of Nonstructural protein 1 (Q194T2 whole entry): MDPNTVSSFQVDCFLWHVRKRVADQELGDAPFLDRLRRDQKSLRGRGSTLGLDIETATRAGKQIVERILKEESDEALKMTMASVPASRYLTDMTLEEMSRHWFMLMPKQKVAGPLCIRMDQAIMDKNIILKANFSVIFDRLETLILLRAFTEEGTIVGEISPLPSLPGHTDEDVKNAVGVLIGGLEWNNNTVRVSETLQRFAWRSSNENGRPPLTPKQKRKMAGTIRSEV

Structure (SMILES): O=S(=O)(Nc1cnc2ccccc2c1)c1ccccc1
- IC50 [1]: > 100 µM (not active)
- IC50 [2]: > 100 µM (inactive)

Structure (SMILES): CC(=O)Nc1nnc(S(C)(=O)=O)[nH]1
- IC50 [1]: > 100 µM (not active)
- IC50 [2]: > 100 µM (inactive)

Structure (SMILES): CN1CCN(c2cc(-c3cc(O)c4ncccc4c3)ccn2)CC1
- IC50 (Bcl-2-related protein A1): 12.5 µM (active)
- IC50 [3]: 15.6 µM (active)
- IC50 [4]: 10.8 µM (active)
- IC50 (Nonstructural protein 1): 9.85 µM (active)
- IC50 [5]: 5.17 µM (active)
- IC50 [6]: 6.88 µM (active)
- AC50 [7]: 1.58 µM (active)

Structure (SMILES): CCCCc1nc2sc3c(SCC(=O)NCc4ccco4)ncnc3c2c2c1CCC2
- EC50 [8]: 78.6 µM (inactive)
- EC50 [9]: > 79.4 µM (not active)
- EC50 [10]: 58.8 µM (not active)

Structure (SMILES): CCOc1cc(CO)ccc1OCC(=O)N1CCCCC1
- IC50 (Coagulation factor XII): > 50 µM (inactive)

Structure (SMILES): Cc1cc(N2C(=O)C(O)=C(C(=O)c3ccc(Cl)cc3)C2c2cccc(Br)c2)no1 (centres undefined)
- EC50 [8]: > 79.4 µM (inactive)
- EC50 [9]: > 79.4 µM (not active)
- EC50 [10]: 113 µM (not active)

Structure (SMILES): COc1ccccc1CC(=O)NN1C(=O)c2ccccc2C1=O
- IC50 (Coagulation factor XII): > 50 µM (inactive)

Structure (SMILES): O=C1c2ccccc2C(=O)N1c1nnc(Cc2ccc(F)cc2)[nH]1
- IC50 [1]: > 100 µM (not active)
- IC50 [2]: 4.66 µM (active)

Structure (SMILES): Cn1c(=O)cc(SCC(=O)N2CCCC2)c2cc(Cl)ccc21
- EC50 [8]: > 79.4 µM (inactive)
- EC50 [9]: > 79.4 µM (not active)
- EC50 [10]: > 79.4 µM (not active)
- IC50 [11]: > 80 µM (inactive)

Structure (SMILES): Cc1ccc(C(=O)N/N=C/c2ccc(-c3ccc(Br)cc3[N+](=O)[O-])o2)o1
- IC50 (Protein Rev): > 25.1 µM (not active)
- IC50 [12]: 10.4 µM (inactive)
- IC50 (Genome polyprotein): > 100 µM (active)

Structure (SMILES): COc1cccc(/C=C/c2ccc3cccc(O)c3n2)c1
- EC50 (Beta-galactosidase): > 40 µM (inactive)
- IC50 [13]: 15.1 µM (active)
- AC50 [14]: 24.4 µM (active)
- EC50 [15]: > 67.5 µM (inactive)
- EC50 (HEK293 [16]): > 59.7 µM (inactive)
- EC50 (HEK293 [17]): > 0.0091 µM (active)
